Results reported in ChEMBL document CHEMBL1137501, “Identification and synthesis of major metabolites of Vasopressin V2-receptor agonist WAY-151932, and antagonist, Lixivaptan” (Bioorg Med Chem Lett, 2007).

Key:
Vasopressin V1a receptor [1] = molecular target: T1, Vasopressin V1a receptor (Homo sapiens, UniProt P37288); experiment: Displacement of [3H]manning ligand from human vasopressin V1a receptor expressed in CHO cells; assay type: cell-based
Target sequence in this assay (P37288 whole entry): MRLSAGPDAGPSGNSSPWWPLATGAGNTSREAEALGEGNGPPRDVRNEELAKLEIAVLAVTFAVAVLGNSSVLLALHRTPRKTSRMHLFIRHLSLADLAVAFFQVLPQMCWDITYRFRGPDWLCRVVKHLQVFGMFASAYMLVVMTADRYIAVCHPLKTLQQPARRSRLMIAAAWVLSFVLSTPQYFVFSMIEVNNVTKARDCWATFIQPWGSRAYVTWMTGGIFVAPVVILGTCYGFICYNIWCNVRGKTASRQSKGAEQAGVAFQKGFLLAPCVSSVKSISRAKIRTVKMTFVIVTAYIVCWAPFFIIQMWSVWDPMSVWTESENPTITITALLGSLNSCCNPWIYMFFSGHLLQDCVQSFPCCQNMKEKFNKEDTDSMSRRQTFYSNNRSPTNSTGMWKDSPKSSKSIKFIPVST

Vasopressin V2 receptor [2] = molecular target: T2, Vasopressin V2 receptor (Homo sapiens, UniProt P30518); experiment: Displacement of [3H]AVP from human vasopressin V2 receptor expressed in CHO cells; assay type: cell-based
T2 sequence (P30518 whole entry): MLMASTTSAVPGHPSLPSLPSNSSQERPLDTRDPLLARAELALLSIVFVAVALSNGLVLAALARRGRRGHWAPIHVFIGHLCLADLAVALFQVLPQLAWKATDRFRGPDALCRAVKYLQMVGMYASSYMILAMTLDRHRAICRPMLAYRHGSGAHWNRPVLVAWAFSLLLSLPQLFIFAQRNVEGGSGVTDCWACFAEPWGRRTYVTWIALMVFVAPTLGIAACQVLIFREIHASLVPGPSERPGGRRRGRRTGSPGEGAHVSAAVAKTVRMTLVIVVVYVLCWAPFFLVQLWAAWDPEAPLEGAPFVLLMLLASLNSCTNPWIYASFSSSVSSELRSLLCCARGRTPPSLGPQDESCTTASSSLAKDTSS

Rattus norvegicus [3] = experiment: Effect on urine volume in rat 10 mg/kg, iv relative to control; assay type: functional
Oxytocin receptor = molecular target: T3, Oxytocin receptor (Homo sapiens, UniProt P30559); experiment: Displacement of [3H]oxytocin from human oxytocin receptor expressed in CHO cells; assay type: cell-based
T3 sequence (P30559 whole entry): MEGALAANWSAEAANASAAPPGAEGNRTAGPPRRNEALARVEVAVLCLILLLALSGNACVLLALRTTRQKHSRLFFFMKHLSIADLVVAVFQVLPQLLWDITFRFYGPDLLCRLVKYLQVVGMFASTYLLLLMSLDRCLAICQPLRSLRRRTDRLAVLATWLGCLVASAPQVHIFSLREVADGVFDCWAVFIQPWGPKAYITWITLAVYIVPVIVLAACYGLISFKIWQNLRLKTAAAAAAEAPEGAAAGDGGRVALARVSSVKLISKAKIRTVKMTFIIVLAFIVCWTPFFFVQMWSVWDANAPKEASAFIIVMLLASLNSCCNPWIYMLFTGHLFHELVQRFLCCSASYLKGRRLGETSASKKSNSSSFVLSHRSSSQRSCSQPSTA

Rattus norvegicus [4] = experiment: Effect on urine volume in rat 10 mg/kg, po relative to control; assay type: functional
Vasopressin V2 receptor [5] = molecular target: T2, Vasopressin V2 receptor; experiment: Displacement of [3H]AVP from human vasopressin V2 receptor expressed in mouse LV2 cells; assay type: cell-based
Vasopressin V1a receptor [6] = molecular target: T1, Vasopressin V1a receptor; experiment: Displacement of [3H]manning ligand from human vasopressin V1a receptor expressed in CHO cells at 1000 nM; assay type: cell-based
Target sequence in this assay (P37288 whole entry, looked up): as the sequence (P37288 whole entry) above

[7] = molecular target: T4, Oxytocin receptor (Homo sapiens) (UniProt P30559); experiment: Displacement of [3H]oxytocin from human oxytocin receptor expressed in CHO cells at 1000 nM; assay type: cell-based
T4 sequence (whole entry): T3 sequence (P30559 whole entry)

Vasopressin V2 receptor [8] = molecular target: T2, Vasopressin V2 receptor; experiment: Displacement of [3H]AVP from human vasopressin V2 receptor expressed in CHO cells at 1000 nM; assay type: cell-based
[9] = molecular target: T4, Oxytocin receptor (Homo sapiens); experiment: Displacement of [3H]oxytocin from human oxytocin receptor expressed in CHO cells at 100 nM; assay type: cell-based
Vasopressin V2 receptor [10] = molecular target: T2, Vasopressin V2 receptor; experiment: Displacement of [3H]AVP from human vasopressin V2 receptor expressed in CHO cells at 100 nM; assay type: cell-based
Vasopressin V1a receptor [11] = molecular target: T1, Vasopressin V1a receptor; experiment: Displacement of [3H]manning ligand from human vasopressin V1a receptor expressed in CHO cells at 100 nM; assay type: cell-based
Target sequence in this assay (P37288 whole entry, looked up): as the sequence (P37288 whole entry) above

Row | SMILES | IC50 (Vasopressin V1a receptor [1]) [µM] | IC50 (Oxytocin receptor) [µM] | Activity (Rattus norvegicus [4]) [%] | other results
1 | Cc1ccc(F)cc1C(=O)Nc1ccc(C(=O)Nc2ccccc2Cn2cccc2C(=O)O)c(Cl)c1 | > 1 | > 1 |  | IC50 (Vasopressin V2 receptor [2]): > 1 µM; Activity (Rattus norvegicus [3]): 6.9%
2 | Cc1ccc(F)cc1C(=O)Nc1ccc(C(=O)Nc2ccccc2C(=O)O)c(Cl)c1 | > 1 | > 1 |  | IC50 (Vasopressin V2 receptor [2]): > 1 µM; Activity (Rattus norvegicus [3]): -6%
3 | Cc1ccn(-c2ccc(C(=O)N3Cc4cccn4Cc4ccccc43)c(Cl)c2)n1 |  | 0.353 | -82 | 
4 | Cc1ccc(F)cc1C(=O)Nc1ccc(C(=O)N2CC3C=CC(=O)N3Cc3ccccc32)c(Cl)c1 (stereo not drawn) | > 1 | > 1 | -26 | IC50 (Vasopressin V2 receptor [2]): 0.034 µM
5 | Cc1ccn(-c2ccc(C(=O)N3C=C4CCC(=O)N4Cc4ccccc43)c(Cl)c2)n1 |  |  | 0 | IC50 (Vasopressin V2 receptor [5]): 1.21 µM; inhibition (Vasopressin V1a receptor [6]): 4%
6 | Cc1ccc(F)cc1C(=O)Nc1ccc(C(=O)N2CC3=CCC(=O)N3Cc3ccccc32)c(Cl)c1 |  |  | 131 | 
7 | Cc1ccc(F)cc1C(=O)Nc1ccc(C(=O)N2C=C3C(O)CC(=O)N3Cc3ccccc32)c(Cl)c1 (stereo not drawn) |  |  | 102 | 
8 | Cc1ccn(-c2ccc(C(=O)Nc3ccccc3Cn3cccc3C(=O)O)c(Cl)c2)n1 |  |  |  | inhibition [7]: -10%; inhibition (Vasopressin V2 receptor [8]): 1%
9 | Cc1ccc(F)cc1C(=O)Nc1ccc(C(=O)N2C=C3CCC(=O)N3Cc3ccccc32)c(Cl)c1 | > 1 | > 1 | 133 | IC50 (Vasopressin V2 receptor [2]): 0.011 µM
10 | Cc1ccn(-c2ccc(C(=O)N3CC4C=CC(=O)N4Cc4ccccc43)c(Cl)c2)n1 (stereo not drawn) |  |  | 16 | inhibition [7]: -4%; inhibition (Vasopressin V2 receptor [8]): 16%; inhibition (Vasopressin V1a receptor [6]): -8%
11 | Cc1ccn(-c2ccc(C(=O)N3CC4=CCC(=O)N4Cc4ccccc43)c(Cl)c2)n1 |  |  | 0 | inhibition [7]: 9%; inhibition (Vasopressin V2 receptor [8]): 40%; inhibition (Vasopressin V1a receptor [6]): -3%
12 | Cc1ccc(F)cc1C(=O)Nc1ccc(C(=O)Nc2ccccc2Cn2cccc2C=O)c(Cl)c1 |  |  |  | inhibition [9]: 12%; inhibition (Vasopressin V2 receptor [10]): 3%; inhibition (Vasopressin V1a receptor [11]): -6%
13 | O=C(c1ccc(-n2ccc(CO)n2)cc1Cl)N1Cc2cccn2Cc2ccccc21 |  |  | -82 | 
14 | Cc1ccc(F)cc1C(=O)Nc1ccc(C(=O)N2Cc3cccn3Cc3ccccc32)c(Cl)c1 [LIXIVAPTAN] | 0.124 | 0.519 | 740 | 
15 | O=C(O)c1ccn(-c2ccc(C(=O)N3Cc4cccn4Cc4ccccc43)c(Cl)c2)n1 |  |  | 0 | 
16 | Cc1ccn(-c2ccc(C(=O)Nc3ccccc3C(=O)O)c(Cl)c2)n1 |  |  |  | inhibition (Vasopressin V2 receptor [8]): 3%; inhibition (Vasopressin V1a receptor [6]): -7%
